Results: PMC3530165 (Chemistry & biology, 2012)
Read-outs that look alike come from different tables or passages of the source.

Molecular target: C619A GlcB (malate synthase) (Mycobacterium tuberculosis, UniProt P9WK17, C619A)

| SMILES | IC50 | IC50 (read-out: IC50 against GlcB) |
| --- | --- | --- |
| O=C(O)C(=O)CC(=O)c1ccccc1F [Compound 2] | 0.24 µM | – |
| O=C(O)C(=O)CC(=O)c1ccccc1Cl [Compound 3] | 0.5 µM | – |
| O=C(O)C(=O)CC(=O)c1cccc(Cl)c1 [Compound 6] | 0.17 µM | – |
| Cc1ccc(C(=O)CC(=O)C(=O)O)cc1 [Compound 8] | 6 µM | 5.7 µM |
| O=C(O)C(=O)CC(=O)c1ccc(Br)cc1 [Compound 9] | 5.7 µM | 6 µM |
